Test [1] deals with S. aureus RN4220. The test is described as follows: MIC, agar plate dilution method, S. aureus RN4220. It counts as cell-based, Staphylococcus aureus. To be noted: for MIC: Staphylococcus aureus, RN4220, S. aureus RN4220, Sensitive bacterium, read-out: minimal inhibitory concentration (MIC); for minimal inhibitory concentration (MIC): S. aureus RN4220, Sensitive bacterium. Here is the method:
(§1) As for the representative compounds of a new aminoglycoside antibiotic of the present invention described in Examples, the minimal inhibitory concentration (MIC, μg/mL) was measured for various assay strains of bacteria using an agar plate dilution method in accordance with the method described in the Japan Society of Chemotherapy.

For test [2], the system named is S. aureus RN4220/pMS520. In words: MIC, agar plate dilution method, S. aureus RN4220/pMS520. The following applies: for MIC: Staphylococcus aureus, MRSA, read-out: minimal inhibitory concentration (MIC), S. aureus RN4220/pMS520, MRSA; for minimal inhibitory concentration (MIC): S. aureus RN4220/pMS520, MRSA. It counts as cell-based, Staphylococcus aureus. Here is the method: as §1

Test [3] concerns S. aureus MF490. In words: MIC, agar plate dilution method, S. aureus MF490. The class given is cell-based, Staphylococcus aureus. To be noted: for MIC: Staphylococcus aureus, MRSA, read-out: minimal inhibitory concentration (MIC); for minimal inhibitory concentration (MIC): S. aureus MF490, MRSA. As for the experimental part: as §1
Test [4] relates to E. faecium ATCC19434. In words: MIC, agar plate dilution method, E. faecium ATCC19434. It counts as cell-based, Enterococcus faecium. The following applies: for MIC: Enterococcus faecium, ATCC19434, E. faecium ATCC19434, read-out: minimal inhibitory concentration (MIC); for minimal inhibitory concentration (MIC): E. faecium ATCC19434. Here is the method: as §1
In test [5] the test system is E. coli JM109/pMW218. In words: MIC, agar plate dilution method, E. coli JM109/pMW218. It counts as cell-based, Escherichia coli. The following applies: for MIC: Escherichia coli, JM109/PMW218, E. coli JM109/pMW218, Sensitive bacterium, read-out: minimal inhibitory concentration (MIC); for minimal inhibitory concentration (MIC): E. coli JM109/pMW218, Sensitive bacterium. Here is the method: as §1

Test [6] has as its system K. pneumoniae ATCC BAA-1705. In words: MIC, agar plate dilution method, K. pneumoniae ATCC BAA-1705. It counts as cell-based, Klebsiella pneumoniae. The following applies: for MIC: Klebsiella pneumoniae, ATCCBAA1705, K. pneumoniae ATCC BAA-1705, KPC-producing strain, read-out: minimal inhibitory concentration (MIC); for minimal inhibitory concentration (MIC): K. pneumoniae ATCC BAA-1705, KPC-producing strain. Here is the method: as §1

The subject of test [7] is K. pneumoniae ATCC BAA-2146. In words: MIC, agar plate dilution method, K. pneumoniae ATCC BAA-2146. It counts as cell-based, Klebsiella pneumoniae. The following applies: for MIC: Klebsiella pneumoniae, ATCCBAA2146, K. pneumoniae ATCC BAA-2146, NDM-producing strain, read-out: minimal inhibitory concentration (MIC); for minimal inhibitory concentration (MIC): K. pneumoniae ATCC BAA-2146, NDM-producing strain. As for the experimental part: as §1

Test [8] deals with A. baumannii ATCC BAA-1710. In words: MIC, agar plate dilution method, A. baumannii ATCC BAA-1710. The class given is cell-based, Acinetobacter baumannii. To be noted: for MIC: Acinetobacter baumannii, ATCCBAA1710, A. baumannii ATCC BAA-1710, MDRA, read-out: minimal inhibitory concentration (MIC); for minimal inhibitory concentration (MIC): A. baumannii ATCC BAA-1710, MDRA. As for the experimental part: as §1

Test [9] concerns S. marcescens TH-0447. The test is described as follows: MIC, agar plate dilution method, S. marcescens TH-0447. It counts as cell-based, Serratia marcescens. To be noted: for MIC: Serratia marcescens, TH0447, S. marcescens TH-0447, AMK-resistant, read-out: minimal inhibitory concentration (MIC); for minimal inhibitory concentration (MIC): S. marcescens TH-0447, AMK-resistant. As for the experimental part: as §1

In test [10] the test system is S. marcescens GN6944. The test is described as follows: MIC, agar plate dilution method, S. marcescens GN6944. To be noted: S. marcescens GN6944, GM-resistant; for MIC: Serratia marcescens, read-out: minimal inhibitory concentration (MIC). The class given is cell-based, Serratia marcescens. Here is the method:
as §1

Test [11] concerns P. aeruginosa PAO1. The test is described as follows: MIC, agar plate dilution method, P. aeruginosa PAO1. To be noted: for MIC: Pseudomonas aeruginosa, PAO1, P. aeruginosa PAO1, Sensitive bacterium, read-out: minimal inhibitory concentration (MIC); for minimal inhibitory concentration (MIC): P. aeruginosa PAO1, Sensitive bacterium. It counts as cell-based, Pseudomonas aeruginosa. As for the experimental part: as §1

Test [12] concerns P. aeruginosa PAO1/GN315. The test is described as follows: MIC, agar plate dilution method, P. aeruginosa PAO1/GN315. It counts as cell-based, Pseudomonas aeruginosa. To be noted: for MIC: Pseudomonas aeruginosa, read-out: minimal inhibitory concentration (MIC), P. aeruginosa PAO1/GN315, AMK-resistant; for minimal inhibitory concentration (MIC): P. aeruginosa PAO1/GN315, AMK-resistant. Here is the method:
as §1

In test [13] the test system is P. aeruginosa MSC17707. The test is described as follows: MIC, agar plate dilution method, P. aeruginosa MSC17707. It counts as cell-based, Pseudomonas aeruginosa. To be noted: for MIC: Pseudomonas aeruginosa, MSC17707, P. aeruginosa MSC17707, AMK-resistant, read-out: minimal inhibitory concentration (MIC); for minimal inhibitory concentration (MIC): P. aeruginosa MSC17707, AMK-resistant. As for the experimental part: as §1

Test [14] deals with P. aeruginosa MSC01035. The test is described as follows: MIC, agar plate dilution method, P. aeruginosa MSC01035. It counts as cell-based, Pseudomonas aeruginosa. To be noted: P. aeruginosa MSC01035, ABK-resistant; for MIC: Pseudomonas aeruginosa, read-out: minimal inhibitory concentration (MIC). Here is the method:
as §1

Values after ≈ are worked out from the molar mass of the structure shown.

For the compound `NCC[C@H](O)C(=O)N[C@@H]1C[C@H](N)[C@@H](O[C@H]2O[C@H](CN)[C@@H](O)[C@H](O)[C@H]2O)[C@H](O)[C@H]1O[C@H]1O[C@H](CO)[C@@H](O)[C@H](N)[C@H]1O` [AMK, amikacin, reference compound], the MIC in [1] is 2 µg/mL (≈ 3.42 µM); in [2], 64 µg/mL (≈ 109 µM); in test [3] it was above 64 µg/mL; in [4], 32 µg/mL (≈ 54.6 µM); in [5] it was 0.5 µg/mL (≈ 0.854 µM); in [6], 32 µg/mL (≈ 54.6 µM). Moreover, the MIC was above 64 µg/mL in [7]; 64 µg/mL (≈ 109 µM) in test [8]; above 64 µg/mL in test [9]; 8 µg/mL (≈ 13.7 µM) in test [10]; 2 µg/mL (≈ 3.42 µM) in test [11]; 64 µg/mL (≈ 109 µM) in test [12]. Moreover, the figures for the MIC in test [13] and in test [14] were 32 µg/mL (≈ 54.6 µM) and above 64 µg/mL, respectively.
As to `CNC1C(CO)OC(OC2OC3CC(N)C(OC4C(N)CC(N)C(O)C4O)OC3C(O)C2NC)C(O)C1O` (centres unmarked) [Compound A4-a, 4″-N-methylapramycin], the “minimal inhibitory concentration (MIC)” value in [1] was determined as 4 µg/mL (≈ 7.23 µM); in [2], 4 µg/mL (≈ 7.23 µM); in [3] it was 16 µg/mL (≈ 28.9 µM); in test [4], 32 µg/mL (≈ 57.8 µM); in test [5] it was 2 µg/mL (≈ 3.61 µM); in [6], 2 µg/mL (≈ 3.61 µM). Moreover, the “minimal inhibitory concentration (MIC)” value in test [7] turned out to be 2 µg/mL (≈ 3.61 µM); in [8], 16 µg/mL (≈ 28.9 µM); in test [9], 8 µg/mL (≈ 14.5 µM); in [10], 8 µg/mL (≈ 14.5 µM); in test [11], 8 µg/mL (≈ 14.5 µM); in test [12], 8 µg/mL (≈ 14.5 µM). Also, the “minimal inhibitory concentration (MIC)” value in test [13] and in [14] was 8 µg/mL (≈ 14.5 µM) throughout.
On to `CNC1C(O[C@H]2OC(CO)[C@@H](NCCCN)[C@H](O)C2O)O[C@H]2CC(N)[C@@H](O[C@@H]3C(N)C[C@@H](N)C(O)[C@H]3O)OC2C1O` (some centres unmarked) [Compound A4-b, 4″-N-(3-aminopropyl)apramycin], for which the MIC in test [1] was found to be 4 µg/mL (≈ 6.7 µM); in test [2], 4 µg/mL (≈ 6.7 µM); in test [3], 8 µg/mL (≈ 13.4 µM); in test [4], 16 µg/mL (≈ 26.8 µM); in test [5], 2 µg/mL (≈ 3.35 µM); in test [6], 2 µg/mL (≈ 3.35 µM). For the same compound, the MIC in [7] turned out to be 2 µg/mL (≈ 3.35 µM); in [8], 8 µg/mL (≈ 13.4 µM); in test [9], 8 µg/mL (≈ 13.4 µM); in test [10], 8 µg/mL (≈ 13.4 µM); in test [11], 4 µg/mL (≈ 6.7 µM); in test [12], 8 µg/mL (≈ 13.4 µM). Moreover, the MIC in [13] and in test [14] was 8 µg/mL (≈ 13.4 µM) throughout.
For the compound `CNC1C(OC2OC(CO)C(NCC3(N)CCCC3)C(O)C2O)OC2CC(N)C(OC3C(N)CC(N)C(O)C3O)OC2C1O` (centres unmarked) [Compound A4-c, 4″-N-((1-aminocyclopentyl)methyl)apramycin], the “minimal inhibitory concentration (MIC)” value stood at 4 µg/mL (≈ 6.28 µM) in test [1]; 4 µg/mL (≈ 6.28 µM) in test [2]; 16 µg/mL (≈ 25.1 µM) in test [3]; 16 µg/mL (≈ 25.1 µM) in test [4]; 1 µg/mL (≈ 1.57 µM) in [5]; 1 µg/mL (≈ 1.57 µM) in test [6]. Also, the “minimal inhibitory concentration (MIC)” value in test [7] was found to be 1 µg/mL (≈ 1.57 µM); in test [8], 32 µg/mL (≈ 50.3 µM); in test [9], 8 µg/mL (≈ 12.6 µM); in test [10], 8 µg/mL (≈ 12.6 µM); in [11] it was 16 µg/mL (≈ 25.1 µM); in test [12], 16 µg/mL (≈ 25.1 µM). Further, the “minimal inhibitory concentration (MIC)” value was found to be 32 µg/mL (≈ 50.3 µM) in [13] and 16 µg/mL (≈ 25.1 µM) in [14].

Values taken from patent US11135234B2, “Effective aminoglycoside antibiotic for multidrug-resistant bacteria” (MICROBIAL CHEMISTRY RESEARCH FOUNDATION, priority 2015, dated 2021).
